In general, IC50 refers to the midpoint of a concentration-inhibition curve.

In patent publication US10233173B2, “Substituted 1,2,3-triazoles as NR2B-selective NMDA modulators” (JANSSEN PHARMACEUTICA NV, priority 2016, dated 2019) one finds IC50 data, which are given here for 41 molecules.

Sequence of human GluN1/GluN2B NMDA receptors (Q13224 27-1484, other chains not shown): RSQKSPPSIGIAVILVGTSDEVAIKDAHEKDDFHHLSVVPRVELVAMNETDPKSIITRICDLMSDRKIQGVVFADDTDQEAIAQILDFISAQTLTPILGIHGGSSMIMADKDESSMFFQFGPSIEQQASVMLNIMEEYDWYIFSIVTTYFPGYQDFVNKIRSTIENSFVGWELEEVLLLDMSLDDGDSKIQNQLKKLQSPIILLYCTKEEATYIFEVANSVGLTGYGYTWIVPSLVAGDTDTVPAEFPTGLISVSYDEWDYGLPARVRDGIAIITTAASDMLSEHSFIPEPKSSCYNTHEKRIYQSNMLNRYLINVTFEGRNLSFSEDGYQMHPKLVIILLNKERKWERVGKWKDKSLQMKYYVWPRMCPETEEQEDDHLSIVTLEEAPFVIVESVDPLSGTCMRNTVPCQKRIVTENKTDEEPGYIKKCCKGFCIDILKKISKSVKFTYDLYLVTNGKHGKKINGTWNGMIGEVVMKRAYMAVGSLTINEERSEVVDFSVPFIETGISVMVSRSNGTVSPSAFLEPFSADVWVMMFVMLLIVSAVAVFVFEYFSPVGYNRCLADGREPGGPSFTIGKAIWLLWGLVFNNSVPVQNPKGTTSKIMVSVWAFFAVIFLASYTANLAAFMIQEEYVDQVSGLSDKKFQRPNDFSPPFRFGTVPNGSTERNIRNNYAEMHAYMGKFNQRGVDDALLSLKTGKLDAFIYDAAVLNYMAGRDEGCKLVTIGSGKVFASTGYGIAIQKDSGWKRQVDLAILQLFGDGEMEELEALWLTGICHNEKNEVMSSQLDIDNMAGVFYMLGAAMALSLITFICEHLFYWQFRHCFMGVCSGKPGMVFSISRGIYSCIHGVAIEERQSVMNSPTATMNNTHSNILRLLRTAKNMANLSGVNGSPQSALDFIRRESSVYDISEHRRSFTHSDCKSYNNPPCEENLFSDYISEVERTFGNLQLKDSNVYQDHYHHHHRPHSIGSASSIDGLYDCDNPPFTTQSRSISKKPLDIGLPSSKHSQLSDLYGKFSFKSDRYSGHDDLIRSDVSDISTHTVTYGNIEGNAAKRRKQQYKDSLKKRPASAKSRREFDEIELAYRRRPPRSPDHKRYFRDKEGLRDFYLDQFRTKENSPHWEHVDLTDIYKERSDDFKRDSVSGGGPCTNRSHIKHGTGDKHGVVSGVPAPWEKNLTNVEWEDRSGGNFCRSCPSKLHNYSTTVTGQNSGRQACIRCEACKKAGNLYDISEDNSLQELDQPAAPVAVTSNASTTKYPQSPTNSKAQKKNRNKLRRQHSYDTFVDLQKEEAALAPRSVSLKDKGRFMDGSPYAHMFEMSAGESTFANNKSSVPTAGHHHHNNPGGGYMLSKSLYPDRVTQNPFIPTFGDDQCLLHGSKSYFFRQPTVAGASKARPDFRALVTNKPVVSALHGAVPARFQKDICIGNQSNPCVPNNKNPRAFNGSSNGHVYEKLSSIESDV

In the test the target is human GluN1/GluN2B NMDA receptors (Homo sapiens, UniProt Q05586+Q13224). Description: Cell-based calcium flux (FLIPR) assay on cloned human NR1/NR2B ion channels expressed in mammalian cells. Particulars: standard assay; glutamate at ~EC80; FLIPR calcium flux. Put shortly:
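Calcium influx followed by FLIPR fluorescence after 5 min compound exposure and a further 5 min co-agonist challenge: 10 μM glycine with glutamate at ~EC80 (standard) or EC40 (HTS).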
(In general: Calcium flux is commonly read through the fluorescence of an indicator in the cells.)
For `CCNc1cnc(OCc2cn(-c3ccc(F)c(C(F)(F)F)c3)nn2)nc1C` [Example 458, 2-((1-(3-(Trifluoromethyl)-4-fluorophenyl)-1H-1,2,3-triazol-4-yl)methoxy)-N-ethyl-4-methylpyrimidin-5-amine], the IC50 stood at 0.439 µM.
As for `CCNc1cnc(OCc2cn(-c3ccc(F)c(C(F)(F)F)c3)nn2)nc1` [Example 459, 2-((1-(3-(Trifluoromethyl)-4-fluorophenyl)-1H-1,2,3-triazol-4-yl)methoxy)-N-ethylpyrimidin-5-amine], the figure is 0.126 µM; as for `COC1CN(c2cnc(OCc3cn(-c4ccc(F)c(C(F)(F)F)c4)nn3)nc2)C1` [Example 460, 2-((1-(3-(Trifluoromethyl)-4-fluorophenyl)-1H-1,2,3-triazol-4-yl)methoxy)-5-(3-methoxyazetidin-1-yl)pyrimidine], 0.726 µM.
In the case of `Fc1c(-n2cc(COc3ncc(Cl)cn3)nn2)cccc1C(F)(F)F` [Example 461, 5-Chloro-2-[[1-[2-fluoro-3-(trifluoromethyl)phenyl]triazol-4-yl]methoxy]pyrimidine], the IC50 amounted to 0.07 µM.
As to `Cc1cc(OCc2cn(-c3ccc(F)c(C)c3)nn2)ncn1` [Example 462, 4-[[1-(4-Fluoro-3-methyl-phenyl)triazol-4-yl]methoxy]-6-methyl-pyrimidine], the IC50 was found to be 3.03 µM.
On to `Cc1c(F)cccc1-n1cc(COc2ncc(Cl)cn2)nn1` [Example 463, 5-Chloro-2-[[1-(3-fluoro-2-methyl-phenyl)triazol-4-yl]methoxy]pyrimidine], for which the IC50 stood at 0.647 µM.
Take `Cc1cnc(OCc2cn(-c3cccc(F)c3C)nn2)nc1` [Example 464, 2-[[1-(3-Fluoro-2-methyl-phenyl)triazol-4-yl]methoxy]-5-methyl-pyrimidine]: the IC50 is 0.515 µM.
For `Cc1nc(OCc2cn(-c3cccc(F)c3C)nn2)ncc1F` [Example 465, 5-Fluoro-2-[[1-(3-fluoro-2-methyl-phenyl)triazol-4-yl]methoxy]-4-methyl-pyrimidine] the value was 3.72 µM; for `Cc1c(F)cccc1-n1cc(COc2ncc(C(C)(C)O)cn2)nn1` [Example 466, 2-[2-[[1-(3-Fluoro-2-methyl-phenyl)triazol-4-yl]methoxy]pyrimidin-5-yl]propan-2-ol], 7.01 µM.
On to `Cc1cnc(OCc2cn(-c3cccc(C)c3F)nn2)nc1` [Example 467, 2-[[1-(2-Fluoro-3-methyl-phenyl)triazol-4-yl]methoxy]-5-methyl-pyrimidine], for which the IC50 is 0.711 µM.
`Cc1cccc(-n2cc(COc3ncc(Cl)cn3)nn2)c1F` [Example 468, 5-Chloro-2-[[1-(2-fluoro-3-methyl-phenyl)triazol-4-yl]methoxy]pyrimidine]: the concentration for half-maximal inhibition (IC50) is 1.25 µM.
With `Cc1cccc(-n2cc(COc3ncc(C(F)(F)F)cn3)nn2)c1F` [Example 469, 2-[[1-(2-Fluoro-3-methyl-phenyl)triazol-4-yl]methoxy]-5-(trifluoromethyl)pyrimidine], the half-inhibitory concentration (IC50) was found to be 1.06 µM.
In the case of `Cc1cccc(-n2cc(COc3ncc(Cl)c(C)n3)nn2)c1F` [Example 470, 5-Chloro-2-[[1-(2-fluoro-3-methyl-phenyl)triazol-4-yl]methoxy]-4-methyl-pyrimidine], the IC50 turned out to be 0.659 µM.
For `Cc1cccc(-n2cc(COc3ncc(OC(F)F)cn3)nn2)c1F` [Example 471, 5-(Difluoromethoxy)-2-[[1-(2-fluoro-3-methyl-phenyl)triazol-4-yl]methoxy]pyrimidine] the value was 1.73 µM; for `Cc1cc(-n2cc(COc3nccc(N)n3)nn2)ccc1F` [Example 472, 2-[[1-(4-Fluoro-3-methyl-phenyl)triazol-4-yl]methoxy]pyrimidin-4-amine], 0.149 µM; for `Cc1cc(-n2cc(COc3ncccn3)nn2)ccc1F` [Example 473, 2-[[1-(4-Fluoro-3-methyl-phenyl)triazol-4-yl]methoxy]pyrimidine], 0.072 µM.
Turning to `Cc1cc(-n2cc(COc3ncc(F)cn3)nn2)ccc1F` [Example 474, 5-Fluoro-2-[[1-(4-fluoro-3-methyl-phenyl)triazol-4-yl]methoxy]pyrimidine], the half-maximal inhibitory concentration (IC50) is 0.022 µM.
For `COCc1ccnc(OCc2cn(-c3ccc(F)c(C)c3)nn2)n1` [Example 479, 2-[[1-(4-Fluoro-3-methyl-phenyl)triazol-4-yl]methoxy]-4-(methoxymethyl)pyrimidine], the IC50 was found to be 0.036 µM.
For `Cc1cc(-n2cc(COc3ncc(F)c(C)n3)nn2)ccc1F` [Example 481, 5-Fluoro-2-[[1-(4-fluoro-3-methyl-phenyl)triazol-4-yl]methoxy]-4-methyl-pyrimidine], the IC50 stood at 0.002 µM.
Take `Cc1cc(-n2cc(COc3ncc(OCCF)cn3)nn2)ccc1F` [Example 483, 5-(2-Fluoroethoxy)-2-[[1-(4-fluoro-3-methyl-phenyl)triazol-4-yl]methoxy]pyrimidine]: the 50% inhibitory concentration (IC50) is 0.007 µM.
Consider `Cc1cnc(OCc2cn(-c3cc(C)ccc3F)nn2)nc1` [Example 484, 2-[[1-(2-Fluoro-5-methyl-phenyl)triazol-4-yl]methoxy]-5-methyl-pyrimidine], for which the IC50 is 1 µM.
On to `Cc1ccc(F)c(-n2cc(COc3ncc(Cl)c(C)n3)nn2)c1` [Example 485, 5-Chloro-2-[[1-(2-fluoro-5-methyl-phenyl)triazol-4-yl]methoxy]-4-methyl-pyrimidine], for which the IC50 was 1.01 µM.
On to `Cc1ccc(F)c(-n2cc(COc3ncc(F)c(C)n3)nn2)c1` [Example 486, 5-Fluoro-2-[[1-(2-fluoro-5-methyl-phenyl)triazol-4-yl]methoxy]-4-methyl-pyrimidine], for which the IC50 is above 2.99 µM.
For `Cc1cc(F)ccc1-n1cc(COc2ncc(F)cn2)nn1` [Example 487, 5-Fluoro-2-[[1-(4-fluoro-2-methyl-phenyl)triazol-4-yl]methoxy]pyrimidine], the half-inhibitory concentration (IC50) turned out to be 16.2 µM.
With `COc1cnc(OCc2cn(-c3ccc(F)cc3C)nn2)nc1` [Example 488, 2-[[1-(4-Fluoro-2-methyl-phenyl)triazol-4-yl]methoxy]-5-methoxy-pyrimidine], the IC50 came to 2.65 µM.
As for `Cc1cc(F)ccc1-n1cc(COc2ncc(Cl)cn2)nn1` [Example 489, 5-Chloro-2-[[1-(4-fluoro-2-methyl-phenyl)triazol-4-yl]methoxy]pyrimidine], the figure is 4.42 µM; as for `Cc1cnc(OCc2cn(-c3ccc(F)cc3C)nn2)nc1` [Example 490, 2-[[1-(4-Fluoro-2-methyl-phenyl)triazol-4-yl]methoxy]-5-methyl-pyrimidine], 2.44 µM; as for `CCc1cnc(OCc2cn(-c3ccc(F)cc3C)nn2)nc1` [Example 491, 5-Ethyl-2-[[1-(4-fluoro-2-methyl-phenyl)triazol-4-yl]methoxy]pyrimidine], 1.17 µM.
With `Fc1cnc(OCc2cn(-c3ccc(F)c(OC(F)F)c3)nn2)nc1` [Example 492, 2-[[1-[3-(Difluoromethoxy)-4-fluoro-phenyl]triazol-4-yl]methoxy]-5-fluoro-pyrimidine], the IC50 is 0.026 µM.
As to `Cc1nc(OCc2cn(-c3ccc(F)c(OC(F)F)c3)nn2)ncc1F` [Example 493, 2-[[1-[3-(Difluoromethoxy)-4-fluoro-phenyl]triazol-4-yl]methoxy]-5-fluoro-4-methyl-pyrimidine], the 50% inhibitory concentration (IC50) was found to be 0.004 µM.
As to `CCc1ccnc(OCc2cn(-c3ccc(F)c(OC(F)F)c3)nn2)n1` [Example 495, 2-f[[1-[3-(Difluoromethoxy)-4-fluoro-phenyl]triazol-4-yl]methoxy]-4-ethyl-pyrimidine], the IC50 was 0.01 µM.
In the case of `CC(C)c1ccnc(OCc2cn(-c3ccc(F)c(OC(F)F)c3)nn2)n1` [Example 496, 2-[[1-[3-(Difluoromethoxy)-4-fluoro-phenyl]triazol-4-yl]methoxy]-4-isopropyl-pyrimidine], the half-maximal inhibitory concentration (IC50) is 0.114 µM.
With `COc1ccnc(OCc2cn(-c3ccc(F)c(OC(F)F)c3)nn2)n1` [Example 497, 2-[[1-[3-(Difluoromethoxy)-4-fluoro-phenyl]triazol-4-yl]methoxy]-4-methoxy-pyrimidine], the half-inhibitory concentration (IC50) turned out to be 0.028 µM.
For `OCc1ccnc(OCc2cn(-c3ccc(F)c(OC(F)F)c3)nn2)n1` [Example 498, [2-[[1-[3-(Difluoromethoxy)-4-fluoro-phenyl]triazol-4-yl]methoxy]pyrimidin-4-yl]methanol] the value was 0.019 µM; for `COCc1ccnc(OCc2cn(-c3ccc(F)c(OC(F)F)c3)nn2)n1` [Example 499, 2-[[1-[3-(Difluoromethoxy)-4-fluoro-phenyl]triazol-4-yl]methoxy]-4-(methoxymethyl)pyrimidine], 0.016 µM.
In the case of `CC(C)(O)c1cnc(OCc2cn(-c3ccc(F)c(OC(F)F)c3)nn2)nc1` [Example 500, 2-[2-[[1-[3-(Difluoromethoxy)-4-fluoro-phenyl]triazol-4-yl]methoxy]pyrimidin-5-yl]propan-2-ol], the IC50 was found to be 0.068 µM.
For the molecule `Nc1ccnc(OCc2cn(-c3ccc(F)c(OC(F)F)c3)nn2)n1` [Example 501, 2-[[1-[3-(Difluoromethoxy)-4-fluoro-phenyl]triazol-4-yl]methoxy]pyrimidin-4-amine], the half-inhibitory concentration (IC50) is 0.052 µM.
Regarding `Nc1cnc(OCc2cn(-c3ccc(F)c(OC(F)F)c3)nn2)nc1` [Example 502, 2-[[1-[3-(Difluoromethoxy)-4-fluoro-phenyl]triazol-4-yl]methoxy]pyrimidin-5-amine], the half-inhibitory concentration (IC50) was 0.136 µM.
Take `CNc1ccnc(OCc2cn(-c3ccc(F)c(OC(F)F)c3)nn2)n1` [Example 503, 2-[[1-[3-(Difluoromethoxy)-4-fluoro-phenyl]triazol-4-yl]methoxy]-N-methyl-pyrimidin-4-amine]: the IC50 is 0.008 µM.
`CCNc1ccnc(OCc2cn(-c3ccc(F)c(OC(F)F)c3)nn2)n1` [Example 504, 2-((1-(3-(Difluoromethoxy)-4-fluorophenyl)-1H-1,2,3-triazol-4-yl)methoxy)-N-ethylpyrimidin-4-amine]: the IC50 was 0.007 µM.
Consider `CN(C)c1ccnc(OCc2cn(-c3ccc(F)c(OC(F)F)c3)nn2)n1` [Example 505, 2-[[1-[3-(Difluoromethoxy)-4-fluoro-phenyl]triazol-4-yl]methoxy]-N,N-dimethyl-pyrimidin-4-amine], for which the IC50 was 0.007 µM.
